{"source": "patent US7683044B2", "about": "“Sphingomyelin therapy of autoimmune disease” (Center for Molecular Medicine and Immunology, priority 1999, dated 2010)", "key": {"[1]": {"test_system": "Primary Sjogren's Syndrome (pSS)", "test": "Therapy of primary Sjogren's syndrome with rituximab combined with sphingomyelin (Example 4)", "assay_type": "in vivo, human", "protocol": "They then receive a course of rituximab (Rituxan, Genentech) at 600 mg infused over 6 hours every other week for 3 doses, combined with weekly infusions of sphingomyelin at doses of 400 mg for 6 weeks. During this therapy, only 15 mg prednisolone is continued as a maintenance therapy. After the first rituximab infusion, their circulating B-cells are measured to be depleted by 90%, which continues for about 8 months. Their main subjective symptoms of dry mouth and eyes show improvement, as well as their parotid gland reduction is noted, and also an improvement in their dry cough and purpura. An improvement of the objective parameters of dry eyes and dry mouth is also observed, and this improvement is maintained for at least 3 months after this therapy course. The combination of sphingomyelin with apoptosis-inducing agent is shown to be synergistic for treatment of pSS."}, "rheumatoid arthritis [2]": {"test_system": "rheumatoid arthritis", "test": "Therapy of rheumatoid arthritis with sphingomyelin, patient one (Example 1)", "assay_type": "in vivo, human", "protocol": "Various forms of sphingomyelin can be obtained in powder form from Sigma Chemicals (St. Louis, Mo.). Mix 1 g of sphingomyelin powder with 9.5 ml of sterile saline or phosphate buffered saline (PBS) and QS to 10 ml. Sonicate the resulting suspension in a water bath at 80-90° C. for 1 hour. The suspension should be administered within one hour of sonication and should be approximately room temperature (25-30° C.). The suspension can be stored at 4° C.; however, it should be re-sonicated for 30 minutes in a water bath at 80-90° C. before administration. […] They have a history of rheumatoid arthritis (RA) that presented about 5 years ago, and has undergone numerous treatments with corticosteroids, cyclophosphamide, and methotrexate, with responses of reduced durations and then relapses. They now present to their rheumatologist with active RA as judged by the presence of 5 tender and 4 swollen joints (out of 44 examined), morning stiffness for more than 45 minutes, an elevated erythrocyte sedimentation rate (ESR) of 40 mm/h (Westergren method), and an elevated C-reactive protein (CRP) blood level of 80 mg/L, as well as increased levels of rheumatoid factor (RF) of IgM, IgG, and IgA isotypes. All other laboratory tests, except circulating red blood cells (mild anemia), are within the normal range. They have been taking a nonsteroidal anti-inflammatory drug (NSAID; ibuprofen), 20 mg/day of prednisolone, and doses of cyclophosphamide i.v. (750 mg). The patient is allowed to continue on these medications, and is also given i.v. infusions of sphingomyelin (prepared as described above) in phosphate-buffered sterile saline and QS twice weekly at doses of 400 mg, continuing for 3 weeks. […] The patient is considered to have improved upon adding sphingomyelin i.v. therapy to their prior medications, to which they relapsed. Subsequently, they have their prednisolone maintenance therapy tapered to 5 mg daily with 200 mg sphingomyelin given 3 times weekly for 8 weeks, and is able to function as before without any deterioration of their condition, with increase in their physical activities and general reduction in joint pain and swelling."}, "[3]": {"test_system": "Systemic Lupus Erythematosus (SLE)", "test": "Therapy of systemic lupus erythematosus with sphingomyelin, epratuzumab and prednisolone (Example 2)", "assay_type": "in vivo, human", "text": "patient two is a person with two healthy children, and with a history of SLE for at least 8 years. They have received prior cyclophosphamide, azathioprine, and corticosteroid treatments, with recurrent activity flares resulting in increasing disability. They have had evidence of myelosuppression, with lymphopenia, resulting in tapering of their medications. Prior to receiving the current experimental therapy, they are confirmed to have a diagnosis of SLE according to the American College of Rheumatology revised criteria, and moderately active disease (a score of 10 for total British Isles Lupus Assessment Group (BILAG) disease activity) at study entry. Their current medication of prednisolone, 15 mg/day, is continued, and they receive epratuzumab (anti-CD22 humanized monoclonal antibody) i.v. at 360 mg/m^2 once weekly every other week for a total of 4 infusions. Prior to each infusion, they are medicated with acetaminophen (Tylenol) and antihistamine (Benadryl). They are also given an infusion of 300 mg sphingomyelin twice weekly for 8 weeks. Two and 6 weeks after completion of this therapy, they are evaluated, and it is decided that their prednisolone doses of 15 mg/day can be tapered to 10 mg/day, because of initial evidence of improvement of their BILAG scores in 3 of the 8 body systems. Four weeks later, the SLE panel of tests (autoantibodies, C3, C-reactive protein, erythrocyte sedimentation rate), and physical examination indicate progressive improvement, with less fatigue, lethargy, malaise, anorexia, reduction of malar erythemia, and reduction of arthritis. They are considered to have about a 40% improvement of their condition as a result of the investigational therapy."}, "rheumatoid arthritis [4]": {"test_system": "rheumatoid arthritis", "test": "Therapy of rheumatoid arthritis with adalimumab combined with sphingomyelin (Example 3)", "assay_type": "in vivo, human", "protocol": "A person with 3 healthy children presents with a history of rheumatoid arthritis (RA) for 9 years, and a prior therapy history of methotrexate, leflunomide, prednisolone, sometimes in combination. They continue on their methotrexate (10 mg) and prednisolone (10 mg) daily doses, and is now given the TNF antagonist, adalimumab (Humira, Abbott Laboratories) subcutaneously at 40 mg every other week, combined with weekly infusions of sphingomyelin at a dose of 400 mg. This therapy is continued for 12 weeks, and they are evaluated for response every 4 weeks after completion of their course of therapy by ACR 20%, 50% and 70% scoring, and EULAR responses."}, "[5]": {"test_system": "B-cells isolated from individuals with autoimmune disease", "test": "MTT cell viability, sphingomyelin enhancement of chemotherapy on B-cells (Example 5)", "assay_type": "cell-based, human", "protocol": "(§1) Sphingomyelin enhancement of chemotherapy is evaluated by measuring its effect on 5-fluorouracil or doxorubicin (DOX) treatment of B-cells isolated from individuals with autoimmune disease and grown in culture. Cell viability is measured using the dye MTT (3-(4,5-dimethylthiazol-2-yl)-2,5-diphenyl tetrazolium bromide) in a 24-well chamber format. See Mosmann, T., J. Immunol. Methods, 65:55-63 (1983). B-cells are maintained in RPMI media supplemented with 10% fetal calf serum. Human umbilical cord venous endothelial cells (HUVEC) from pooled donors (Clonetics/BioWhittaker, San Diego, Calif.) are used as controls. Cells (10^4/well) are plated in the presence of varying concentrations of drug and sphingomyelin and grown in a humidified incubator. As an additional control, egg yolk phosphatidylcholine (PC) (Sigma, St. Louis, Mo.) is added to the cells instead of sphingomyelin. Drugs and lipids are added to HUVEC cells 24 hours after plating, but otherwise are treated the same. After four days, the media is replaced with media containing 0.5 mg/ml MTT and incubated two to four hours at 37° C. An equal volume of 0.04 N HCl in isopropanol is added, and the absorbance at 570 nm is measured. The IC50 values, defined as the concentration of drug necessary to reduce cell viability by 50%, from three to seven independent experiments are averaged and compared using ANOVA."}, "[6]": {"test_system": "progressive rheumatoid arthritis", "assay_type": "in vivo, human", "text": "A person, with severe progressive rheumatoid arthritis of the finger joints, wrists, and elbows, has failed therapy with methotrexate, and obtains only minor relief when placed on Enbrel therapy."}, "[7]": {"test_system": "chronic idiopathic thrombocytopenia purpura", "test": "Treatment of a patient with chronic idiopathic thrombocytopenia purpura (Example 6)", "assay_type": "in vivo, human", "protocol": "A person with chronic idiopathic thrombocytopenia purpura has been treated with gamma globulins and high-dose dexamethasone, but the disease progresses. They undergo splenectomy, which fails to stabilize the disease. Their platelet count falls to less than 20,000/microliter, and hemorrhagic events increase in frequency. The patient is then treated with epratuzumab, 480 mg intravenously each week, plus 400 mg/wk of sphingomyelin, for a period of six weeks. Four weeks after the last dose of epratuzumab and sphingomyelin, platelet number is increased by 300%, and the hemorrhagic events disappear."}, "[8]": {"test_system": "Human umbilical cord venous endothelial cells (HUVEC)", "test": "MTT cell viability, control HUVEC cells (Example 5)", "assay_type": "cell-based", "protocol": "as §1"}, "myasthenia gravis": {"test_system": "myasthenia gravis", "test": "Treatment of a patient with myasthenia gravis, epratuzumab plus sphingomyelin (Example 8)", "assay_type": "in vivo, human", "protocol": "A person has failed all conventional therapy for myasthenia gravis, and is admitted to a neurological intensive therapy unit. The patient is stabilized by plasma exchange, and is given intravenous immunoglobulin to reduce the titer of anti-acetylcholine receptor antibody. The patient remains bedridden, and is then treated with epratuzumab, 600 mg intravenously each week, plus 400 mg/wk of sphingomyelin, for a period of six weeks. […] Two months after the last treatment the patient is mobile, and is released from the hospital."}, "[9]": {"conditions": "B-cells, MTT after four days, from IC50 values of drug"}}, "note": "Where two headings read alike, the source gives them in different places.", "data": [{"substance": "rituximab: Rituximab (Rituxan, anti-CD20) antibody [reference compound]", "values": [{"measurement": "depletion of circulating B-cells", "setting": "[1]; after the first rituximab infusion (600 mg), combined with weekly sphingomyelin 400 mg", "result": 90, "unit": "%"}, {"measurement": "duration of circulating B-cell depletion", "setting": "[1]; rituximab 600 mg every other week x3 + sphingomyelin 400 mg weekly for 6 weeks", "result": "about 8 months"}]}, {"substance": "sphingomyelin", "values": [{"measurement": "ESR, CRP and RF factor levels above the normal range", "setting": "rheumatoid arthritis [2]; 4 and 6 months after onset, therapy of prednisolone, NSAID and sphingomyelin repeated at 3 months", "result": "about 20%"}, {"measurement": "reduction of joint stiffness and swelling compared to baseline", "setting": "rheumatoid arthritis [2]; 4 and 6 months after onset, therapy repeated at 3 months", "result": "about 50%"}, {"measurement": "improvement in the ACR20 score", "setting": "rheumatoid arthritis [2]; 4 and 6 weeks after sphingomyelin 400 mg i.v. twice weekly for 3 weeks, added to ibuprofen, prednisolone, cyclophosphamide", "result": 20, "unit": "%"}, {"measurement": "improvement in the elevated CRP, RF and ESR levels", "setting": "rheumatoid arthritis [2]; 4 and 6 weeks after sphingomyelin 400 mg i.v. twice weekly for 3 weeks, added to prior medications", "result": "about 50%"}, {"measurement": "joint stiffness in the morning", "setting": "rheumatoid arthritis [2]; 4 and 6 weeks later, baseline more than 45 minutes", "result": "less than 15 minutes"}, {"measurement": "combination effect with standard anti-rheumatoid therapeutic agents", "setting": "rheumatoid arthritis [2]; compared with either sphingomyelin or standard agents alone", "result": "more than additive effect"}, {"measurement": "improvement of BILAG scores, number of body systems", "setting": "[3]; 2 and 6 weeks after sphingomyelin 300 mg twice weekly for 8 weeks + epratuzumab 360 mg/m^2 x4 + prednisolone 15 mg/day", "result": "3 of the 8 body systems"}, {"measurement": "improvement of condition", "setting": "[3]; four weeks later, sphingomyelin + epratuzumab + prednisolone", "result": "~40", "unit": "%"}, {"measurement": "combination effect with prednisolone and epratuzumab", "setting": "[3]; more effective than either agent alone", "result": "synergistic effect"}, {"measurement": "duration of improvement after therapy course", "setting": "[1]; rituximab + sphingomyelin", "result": "at least 3 months"}, {"measurement": "objective parameters of dry eyes and dry mouth", "setting": "[1]; rituximab + sphingomyelin 400 mg weekly for 6 weeks, prednisolone 15 mg maintenance", "result": "improvement"}, {"measurement": "combination effect with apoptosis-inducing agent", "setting": "[1]; sphingomyelin with rituximab", "result": "synergistic"}, {"measurement": "overall response", "setting": "rheumatoid arthritis [4]; 6-month evaluation, anti-TNF therapy combined with sphingomyelin", "result": "good response"}, {"measurement": "ACR response", "setting": "rheumatoid arthritis [4]; end of 12-week course, sphingomyelin 400 mg weekly + adalimumab 40 mg s.c. every other week + methotrexate, prednisolone", "result": "ACR50 improvement"}, {"measurement": "EULAR response", "setting": "rheumatoid arthritis [4]; end of 12-week course, sphingomyelin + adalimumab + methotrexate, prednisolone", "result": "moderate EURAR response"}, {"measurement": "tolerability of therapy", "setting": "rheumatoid arthritis [4]; sphingomyelin 400 mg weekly + adalimumab, 12 weeks", "result": "tolerated well"}, {"measurement": "increase of 5FU sensitivity", "setting": "[5]; [9]", "result": 140, "unit": "%"}, {"measurement": "increase of DOX sensitivity", "setting": "[5]; [9]", "result": 340, "unit": "%"}, {"measurement": "improvement in measures of disease activity", "setting": "[6]; 6 months after the second therapy with veltuzumab and sphingomyelin", "result": 70, "unit": "%"}, {"measurement": "improvement in measures of disease activity", "setting": "[6]; after 3 weeks, veltuzumab 80 mg i.v. weekly + sphingomyelin 400 mg/wk for eight weeks", "result": 30, "unit": "%"}, {"measurement": "duration for which the improvement is maintained", "setting": "[6]; after first course of veltuzumab + sphingomyelin", "result": 6, "unit": "months"}, {"measurement": "normal B-cells in the blood", "setting": "[6]; veltuzumab + sphingomyelin", "result": "significantly reduced"}, {"measurement": "hemorrhagic events", "setting": "[7]; four weeks after last dose of epratuzumab and sphingomyelin", "result": "disappear"}, {"measurement": "increase of platelet number", "setting": "[7]; four weeks after last dose, epratuzumab 480 mg i.v. weekly + sphingomyelin 400 mg/wk for six weeks", "result": 300, "unit": "%"}, {"measurement": "disease status", "setting": "[7]; three months after the last treatment", "result": "full remission"}, {"measurement": "sensitization to 5FU or DOX therapy", "setting": "[8]", "result": "does not sensitize"}, {"measurement": "drop in B-lymphocytes", "setting": "myasthenia gravis; one week after last treatment, epratuzumab 600 mg i.v. weekly + sphingomyelin 400 mg/wk for six weeks", "result": 50, "unit": "%"}, {"measurement": "titer of the anti-acetylcholine (receptor antibody)", "setting": "myasthenia gravis; one week after last treatment, epratuzumab + sphingomyelin", "result": "significant drop"}, {"measurement": "clinical status", "setting": "myasthenia gravis; two months after the last treatment", "result": "mobile"}]}, {"substance": "veltuzumab: anti-CD20 humanized Mab", "values": [{"measurement": "human anti-veltuzumab antibodies", "setting": "[6]; human, in vivo", "result": "No human anti-veltuzumab antibodies are observed"}]}, {"substance": "phosphatidylcholine [PC, reference compound]", "values": [{"measurement": "enhancement of chemosensitivity (5FU, DOX)", "setting": "[5]; lipid control added to the cells instead of sphingomyelin", "result": "does not elicit a similar effect"}]}]}
